Experiments:
NB-4 cells = assay: Differentiation of NB-4 cells (CD11b/CD14 flow cytometry); assay type: cell-based, human; conditions: 96 h
Method: (§1) NB-4 and KG1 cells were obtained from the German Resource Center for Biological Material (DSMZ GmbH, Braunschweig, Germany). The cells were grown in RPMI-1640 medium supplemented with 10 % fetal bovine serum (FBS), 100 U/ml penicillin, and 100 µg/ml streptomycin (Sigma, St Louis, MO, USA). Cells were grown at 37 °C in 5 % CO2.
(§2) The expression of differentiation markers at the cell surface was determined by flow cytometry. Differentiation of NB-4 and KG1 cells was measured by staining using the monoclonal antibodies CD11b-FITC and CD14-PE and appropriately labeled isotype controls (all from ImmunoTools, Friesoythe, Germany). Differentiation of human CD34^+ve cells was measured by triple-color staining using various cocktails of phycoerythrin-, fluorescein isothyocyanate-, and PerCP-monoclonal antibodies (from Becton–Dickinson, San Jose, CA, USA). The markers used to identify cell populations were as follows: CD45^+ve leukocytes; CD34^+ve/CD133^+ve HSCs; CD33^+ve/CD13^+ve immature myeloid; CD117^+ve myeloblasts and promyelocytes; CD11b^+ve/CD15^+ve mature myeloid; CD11b^+ve/CD65^+ve neutrophils; CD11b^+ve/CD14^+ve monocytes; glycophorin^+ve A erythroid cells; CD61^+ve megakaryoblasts and platelets; CD2^+ve/CD5^+ve/CD7^+ve T cells and NK cells; CD56^+ve NK cells; CD19^+ve/CD20^+ve B cells; and CD10^+ve B lymphocyte progenitors; and present on mature neutrophils and DR^+ve progenitors and present on mature monocytes. The cells were stained with 1 µl of the fluorescently labeled antibody (or the appropriate control immunoglobulin) for 1 h on ice. Next, they were washed with ice-cold phosphate-buffered saline (PBS) and suspended in 0.5 ml PBS supplemented with 0.1 % bovine serum albumin (Sigma, St Louis, MO, USA) prior to analysis on FACS Calibur flow cytometer (Becton–Dickinson, San Jose, CA, USA). The acquisition parameters were set for an isotype control. Cells were analyzed using a FACSCalibur, and data analysis was performed using the CellQuest Pro software (Becton–Dickinson, San Jose, CA, USA).

human RARα = biological target: T1, human RARα (Homo sapiens, UniProt P10276); assay: Competition with [3H]-ATRA binding, nuclear extracts of Sf21 cells expressing RARα; conditions: nuclear extracts of baculovirus-infected Sf21 cells, read-out: Binding affinity ED50, RARα
T1 construct: made in house
T1 sequence (P10276 1-462): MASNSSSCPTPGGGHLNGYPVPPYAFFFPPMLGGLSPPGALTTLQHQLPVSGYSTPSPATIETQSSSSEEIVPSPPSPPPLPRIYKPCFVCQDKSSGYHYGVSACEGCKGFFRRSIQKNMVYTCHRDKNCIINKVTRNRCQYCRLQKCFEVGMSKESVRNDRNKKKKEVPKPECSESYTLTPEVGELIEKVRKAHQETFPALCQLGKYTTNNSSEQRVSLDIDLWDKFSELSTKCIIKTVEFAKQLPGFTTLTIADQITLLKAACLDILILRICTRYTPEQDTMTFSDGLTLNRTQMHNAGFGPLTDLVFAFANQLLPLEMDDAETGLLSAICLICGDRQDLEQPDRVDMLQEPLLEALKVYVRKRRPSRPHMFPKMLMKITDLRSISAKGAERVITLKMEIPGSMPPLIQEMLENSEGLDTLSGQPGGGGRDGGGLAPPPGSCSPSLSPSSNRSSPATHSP

human RARβ = biological target: T2, human RARβ (Homo sapiens, UniProt P10826); assay: Competition with [3H]-ATRA binding, nuclear extracts of Sf21 cells expressing RARβ; conditions: nuclear extracts of baculovirus-infected Sf21 cells, read-out: Binding affinity ED50, RARβ
T2 construct: made in house
T2 sequence (P10826 1-455): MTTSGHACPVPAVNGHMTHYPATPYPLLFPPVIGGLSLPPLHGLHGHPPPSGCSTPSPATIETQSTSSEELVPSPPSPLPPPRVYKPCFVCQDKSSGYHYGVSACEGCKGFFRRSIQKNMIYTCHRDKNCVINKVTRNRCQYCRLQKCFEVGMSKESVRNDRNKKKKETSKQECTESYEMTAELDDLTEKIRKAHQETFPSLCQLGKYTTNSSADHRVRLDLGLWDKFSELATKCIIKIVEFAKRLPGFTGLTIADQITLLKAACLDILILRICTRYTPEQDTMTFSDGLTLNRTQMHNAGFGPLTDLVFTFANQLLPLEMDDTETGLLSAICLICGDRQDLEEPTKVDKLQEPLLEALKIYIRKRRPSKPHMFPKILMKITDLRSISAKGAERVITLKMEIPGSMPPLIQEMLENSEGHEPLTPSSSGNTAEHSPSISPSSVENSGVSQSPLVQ

human RARγ = biological target: T3, human RARγ (Homo sapiens, UniProt P13631); assay: Competition with [3H]-ATRA binding, nuclear extracts of Sf21 cells expressing RARγ; conditions: nuclear extracts of baculovirus-infected Sf21 cells
T3 construct: made in house
T3 sequence (P13631 1-454): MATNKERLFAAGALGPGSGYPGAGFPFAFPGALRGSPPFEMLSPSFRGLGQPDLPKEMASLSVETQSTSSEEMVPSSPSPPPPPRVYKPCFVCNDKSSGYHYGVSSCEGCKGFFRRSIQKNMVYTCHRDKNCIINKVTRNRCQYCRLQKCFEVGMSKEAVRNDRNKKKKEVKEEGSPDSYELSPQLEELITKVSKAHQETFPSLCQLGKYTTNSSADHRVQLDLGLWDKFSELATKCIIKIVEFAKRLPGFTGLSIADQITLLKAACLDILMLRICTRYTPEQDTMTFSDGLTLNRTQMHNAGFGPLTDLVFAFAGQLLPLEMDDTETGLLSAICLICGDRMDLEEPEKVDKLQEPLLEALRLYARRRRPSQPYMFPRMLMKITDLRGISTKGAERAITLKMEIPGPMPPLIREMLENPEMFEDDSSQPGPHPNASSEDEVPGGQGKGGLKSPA

KG1 cells = assay: Differentiation of KG1 cells (CD11b/CD14 flow cytometry); assay type: cell-based, human; conditions: 96 h
Method: as §1, §2

[1] = test system: lineage^−ve/CD133^+ve/CD34^+vehuHSC; assay: Ex vivo expansion of lineage-ve/CD133+ve/CD34+ve huHSC; assay type: cell-based, human; conditions: all 15 donors; control 8–10-fold
From the text: The cells used were CD34^+ve cells purified from the blood of normal human adult donors and post-mobilization of stem cells to the blood. Cells obtained and purified in this manner are used routinely by the National Blood Service Stem Cell Laboratory in Birmingham for bone marrow transplantation. Ethics approval for the use of adult human blood-mobilized stem cells (CD34^+vehuHSC) was from the West Midlands Research Ethics Committee. Informed consent was obtained by the regional National Blood Service Stem Cell Laboratory in Birmingham. CD34^+ve cells were purified to 99 % CD34^+ve, 97 % CD133^+ve, >99 % lineage^−ve (n = 15) using an anti-CD34 monoclonal antibody, immunomagnetic beads, and a CliniMACS magnetic separator. Purified cells were plated at 5 × 10^5 cells/ml in microtiter wells in 200 μl of either RPMI-1640 medium (R and D Systems, Abingdon, UK) or HPGM^TM hematopoietic growth medium (Lonza, UK) containing either 10 % FBS or 10 % human serum, antibiotics (100 U/ml penicillin and 100 μg/ml streptomycin) and stem cell factor (SCF), interleukin (IL)-3, and granulocyte-colony stimulating factor (G-CSF) (all from R and D Systems Abingdon, UK) as stated in the results. Cultures were fed every 2–3 days (with fresh compound), split into microtiter wells, and then expanded into 2 ml Costar wells to maintain a cell density of between 2.5 and 10 × 10^5 cells/ml. Cells were grown at 37 °C in 5 % CO2. […]
The expression of differentiation markers at the cell surface was determined by flow cytometry. Differentiation of NB-4 and KG1 cells was measured by staining using the monoclonal antibodies CD11b-FITC and CD14-PE and appropriately labeled isotype controls (all from ImmunoTools, Friesoythe, Germany). Differentiation of human CD34^+ve cells was measured by triple-color staining using various cocktails of phycoerythrin-, fluorescein isothyocyanate-, and PerCP-monoclonal antibodies (from Becton–Dickinson, San Jose, CA, USA). […] Cells were analyzed using a FACSCalibur, and data analysis was performed using the CellQuest Pro software (Becton–Dickinson, San Jose, CA, USA).

CD34^+vehuHSC = assay: Cell production and lifespan of CD34+ve huHSC-initiated cultures; assay type: cell-based, human
From the text: The cells used were CD34^+ve cells purified from the blood of normal human adult donors and post-mobilization of stem cells to the blood. Cells obtained and purified in this manner are used routinely by the National Blood Service Stem Cell Laboratory in Birmingham for bone marrow transplantation. Ethics approval for the use of adult human blood-mobilized stem cells (CD34^+vehuHSC) was from the West Midlands Research Ethics Committee. Informed consent was obtained by the regional National Blood Service Stem Cell Laboratory in Birmingham. CD34^+ve cells were purified to 99 % CD34^+ve, 97 % CD133^+ve, >99 % lineage^−ve (n = 15) using an anti-CD34 monoclonal antibody, immunomagnetic beads, and a CliniMACS magnetic separator. Purified cells were plated at 5 × 10^5 cells/ml in microtiter wells in 200 μl of either RPMI-1640 medium (R and D Systems, Abingdon, UK) or HPGM^TM hematopoietic growth medium (Lonza, UK) containing either 10 % FBS or 10 % human serum, antibiotics (100 U/ml penicillin and 100 μg/ml streptomycin) and stem cell factor (SCF), interleukin (IL)-3, and granulocyte-colony stimulating factor (G-CSF) (all from R and D Systems Abingdon, UK) as stated in the results. Cultures were fed every 2–3 days (with fresh compound), split into microtiter wells, and then expanded into 2 ml Costar wells to maintain a cell density of between 2.5 and 10 × 10^5 cells/ml. Cells were grown at 37 °C in 5 % CO2. Viable cells were enumerated by phase contrast microscopy (400× magnification).
as §2

`C=C1/C(=C\C=C2/CCC[C@]3(C)[C@@H]([C@H](C)CCCC(C)(C)O)CC[C@@H]23)C[C@@H](O)C[C@@H]1O` [1,25D, 1α,25-Dihydroxyvitamin D3] was tested, and the “CD11b+ve/CD14+ve cells (monocyte differentiation)” value (NB-4 cells; NB-4 cells, 10 nM, alone) was ~ 6%.

`CC1(C)CCC(C)(C)c2c1cc(C(=O)Nc1cc(F)c(C(=O)O)c(F)c1)c(O)c2Cl` [AGN195183] showed an IC50 (human RARα) of 20.1 nM, an IC50 (human RARβ) greater than 5000 nM and an IC50 (human RARγ; read-out: Binding affinity ED50, RARγ) greater than 5000 nM. The “CD11b+ve/CD14+ve cells (monocyte differentiation)” value (NB-4 cells; NB-4 cells, 100 nM combined with 10 nM 1,25D) was 40%, the “CD11b+ve/CD14−ve cells (neutrophil differentiation)” value (NB-4 cells; NB-4 cells, 100 nM, alone) was 40% and the “CD11b+ve/CD14+ve cells (monocyte differentiation)” value (KG1 cells; KG1 cells, 100 nM combined with 10 nM 1,25D) was 18%.

In the case of `CCOc1c(Br)cc(C(=O)Nc2ccc(C(=O)O)cc2)cc1C(=O)c1ccc(C)cc1` [AGN196996], the IC50 (human RARα) is reported as 3.9 nM, the “expansion of lineage−ve/CD133+ve/CD34+ve cells” value [1] is reported as “around 20 fold” and the IC50 (human RARβ) is reported as 4036 nM. The “Binding affinity ED50, RARγ” value (human RARγ) was >10,000 nM, the “effect on differentiation of NB-4 cells” value (NB-4 cells; 100 nM with 10 nM 1,25D, compared with 1,25D alone) was “did not have an appreciable effect” and the “effect on differentiation of NB-4 cells” value (NB-4 cells; 100 nM, used alone) was “no effect”. For the same molecule, the “cells (largely myeloid) produced versus γ antagonist-treated and control cultures” value (CD34^+vehuHSC; by day 20) was “around fourfold more cells”, the “prolonged lifespan of cultures” value (CD34^+vehuHSC; human HSCs supplemented with stem cell factor ± interleukin 3, abstract) was “up to 55 days” and the “effect on differentiation of KG1 cells” value (KG1 cells; 100 nM together with 10 nM 1,25D) was “no effect”. For the same molecule, the “effect on differentiation of KG1 cells” value (KG1 cells; 100 nM, used alone) was “no effect”.

B1: granulocyte-colony stimulating factor (protein, UniProt P09919 31-207, looked up)
Granulocyte …: TPLGPASSLPQSFLLKCLEQVRKIQGDGAALQEKLVSECATYKLCHPEELVLLGHSLGIPWAPLSSCPSQALQLAGCLSQLHSGLFLYQGLLQALEGISPELGPTLDTLQLDVADFATTIWQQMEELGMAPALQPTQGAMPAFASAFQRRAGGVLVASHLQSFLEVSYRVLRHLAQP
notes: growth factor added at 30 ng/ml as benchmark for optimal generation of myeloid cells
B1 was tested, and the “cells produced versus control cultures” value (CD34^+vehuHSC; 30 ng/ml, by day 30) was “fourfold more cells” and the “time for which cultures were maintained” value (CD34^+vehuHSC; 30 ng/ml, 10 % FBS, 100 ng/ml SCF, 5 ng/ml IL-3) was no more than 55 days.
